# Measurements from patent US20230233569A1 (Revolution Medicines, Inc., priority 2020, published 2023).
# Where “and” joins values, the source holds several entries; their conditions need not be identical. Equal values may be shown once. Read-outs that look alike come from different tables or passages of the source.
# Columns and labels:
# NRAS WT = NRAS WT (Homo sapiens, UniProt P01111+P62937); test: Disruption of BRAF RBD interaction with Ras (FRET / MOA assay, with Cyclophilin A); format: biochemical; conditions: NRAS WT; read-out: NRAS WT FRET data IC50
# Summary of the method: (§1)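 TR-FRET in 25 mM HEPES pH 7.3, 100 mM NaCl, 5 mM MgCl2, 0.1% BSA: 25 μM Cyclophilin A, 12.5 nM His6-Ras-GMPPNP, 50 nM GST-BRAF RBD with compound (10-point 3-fold series from 30 μM), 3 h at 25° C. Anti-His Eu/anti-GST APC added, 1.5 h more; IC50 from decreased FRET ratio versus DMSO.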
# NRAS Q61K = NRAS Q61K (Homo sapiens, UniProt P01111+P62937, Q61K); test: as above; format: biochemical; conditions: NRAS Q61K; read-out: NRAS Q61K FRET data IC50
# Summary of the method: as §1
# NRAS Q61R = NRAS Q61R (Homo sapiens, UniProt P01111+P62937, Q61R); test: as above; format: biochemical; conditions: NRAS Q61R; read-out: NRAS Q61R FRET data IC50
# Summary of the method: as §1
# KRAS Q61H = KRAS Q61H (Homo sapiens, UniProt P01116+P62937, Q61H); test: as above; format: biochemical; conditions: KRAS Q61H; read-out: KRAS Q61H FRET data IC50
# Summary of the method: as §1
# NCI-H358 (K-Ras G12C) = test: CellTiter-Glo cell viability assay, 5-day treatment; format: cell-based; conditions: Homo sapiens
# Summary of the method: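 Seeded cells received test compound by direct dispensing. On day 5 the plates sat at room temperature approximately 30 minutes, then luminescence was measured. Data were normalized to DMSO and curve-fitted with four parameters.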
# NRAS G12C = NRAS G12C (Homo sapiens, UniProt P01111+P62937, G12C); test: Disruption of BRAF RBD interaction with Ras (FRET / MOA assay, with Cyclophilin A); format: biochemical
# KRAS G12S = KRAS G12S (Homo sapiens, UniProt P01116+P62937, G12S); test: as above; format: biochemical
# Summary of the method: (§2)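 IC50 values reflect loss of K-Ras binding to BRAF RBD, read as a lowered TR-FRET ratio compared with DMSO, driven by compound-mediated K-Ras:Cyclophilin A complex formation. Compound top dose 30 μM final, 3-fold steps, 3 h incubation at 25 °C before a 1.5 h antibody step.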
# KRAS G13C = KRAS G13C (Homo sapiens, UniProt P01116+P62937, G13C); test: as above; format: biochemical
# Summary of the method: as §2
# KRAS G12V = KRAS G12V (Homo sapiens, UniProt P01116+P62937, G12V); test: as above; format: biochemical
# Summary of the method: as §2
# KRAS G12C = KRAS G12C (Homo sapiens, UniProt P01116+P62937, G12C); test: as above; format: biochemical
# Summary of the method: as §2
# KRAS G12D = KRAS G12D (Homo sapiens, UniProt P01116+P62937, G12D); test: as above; format: biochemical
# Summary of the method: as §2
# KRAS G13D = KRAS G13D (Homo sapiens, UniProt P01116+P62937, G13D); test: as above; format: biochemical
# Summary of the method: as §2
# KRAS WT = KRAS WT (Homo sapiens, UniProt P01116+P62937); test: as above; format: biochemical; conditions: KRAS WT; read-out: KRAS WT FRET data IC50
# Summary of the method: as §2
# [1] = NCI-H358, H358, K-Ras G12C, read-out: Additional H358 Cell Viability assay data (K-Ras G12C, IC50)
# [2] = NRAS G12C, read-out: NRAS G12C FRET data IC50
# [3] = read-out: KRAS G12S FRET data, IC50
# [4] = KRAS G13C, read-out: KRAS G13C FRET data IC50
# [5] = KRAS G12V, read-out: KRAS G12V FRET data IC50
# [6] = KRAS G12C, read-out: KRAS G12C FRET data IC50
# [7] = read-out: KRAS G12D FRET data, IC50
# [8] = KRAS G13D, read-out: KRAS G13D FRET data IC50
# Sequence of KRAS Q61H (P01116 1-169 isoform P01116-2 Q61H limits assumed): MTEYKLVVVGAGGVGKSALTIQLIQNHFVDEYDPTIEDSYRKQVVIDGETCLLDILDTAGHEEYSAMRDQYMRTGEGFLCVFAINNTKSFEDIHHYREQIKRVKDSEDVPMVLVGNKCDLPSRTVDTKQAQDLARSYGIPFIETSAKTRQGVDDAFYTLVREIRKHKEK
# Sequence of KRAS Q61H (P62937 whole entry): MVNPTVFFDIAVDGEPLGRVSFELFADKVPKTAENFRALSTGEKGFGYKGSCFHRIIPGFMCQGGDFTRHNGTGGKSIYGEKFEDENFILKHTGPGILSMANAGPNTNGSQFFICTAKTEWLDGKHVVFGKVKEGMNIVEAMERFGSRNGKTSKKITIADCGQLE
# Sequence of KRAS G12V (P01116 1-169 isoform P01116-2 G12V limits assumed): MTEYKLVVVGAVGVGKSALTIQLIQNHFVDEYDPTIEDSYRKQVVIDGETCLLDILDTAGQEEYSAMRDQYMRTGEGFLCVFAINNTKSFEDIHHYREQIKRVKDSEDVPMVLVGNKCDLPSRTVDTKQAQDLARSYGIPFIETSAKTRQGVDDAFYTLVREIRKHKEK
# Sequence of KRAS G12V (P62937 whole entry): as the sequence (P62937 whole entry) above
# Sequence of KRAS WT (P01116 1-169 isoform P01116-2 limits assumed): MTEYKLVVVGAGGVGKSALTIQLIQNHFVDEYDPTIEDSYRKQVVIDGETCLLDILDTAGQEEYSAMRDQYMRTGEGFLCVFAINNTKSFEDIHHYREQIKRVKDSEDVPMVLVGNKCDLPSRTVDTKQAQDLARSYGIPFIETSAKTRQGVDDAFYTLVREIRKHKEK
# Sequence of KRAS WT (P62937 whole entry): as the sequence (P62937 whole entry) above
# Sequence of NRAS Q61K (P01111 whole entry Q61K): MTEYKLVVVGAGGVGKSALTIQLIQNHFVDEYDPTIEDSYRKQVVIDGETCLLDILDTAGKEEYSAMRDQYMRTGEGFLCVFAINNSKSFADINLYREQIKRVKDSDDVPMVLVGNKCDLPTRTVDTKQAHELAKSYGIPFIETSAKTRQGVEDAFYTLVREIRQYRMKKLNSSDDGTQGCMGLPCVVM
# Sequence of NRAS Q61K (P62937 whole entry): as the sequence (P62937 whole entry) above
# Sequence of KRAS G12S (P01116 1-169 isoform P01116-2 G12S limits assumed): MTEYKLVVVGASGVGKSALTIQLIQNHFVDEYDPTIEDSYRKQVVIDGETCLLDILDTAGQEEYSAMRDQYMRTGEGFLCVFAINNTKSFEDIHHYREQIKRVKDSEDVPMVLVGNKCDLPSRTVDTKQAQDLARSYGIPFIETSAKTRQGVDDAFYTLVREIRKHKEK
# Sequence of KRAS G12S (P62937 whole entry): as the sequence (P62937 whole entry) above
# Sequence of NRAS Q61R (P01111 whole entry Q61R): as the sequence (P01111 whole entry Q61K) above, with K61R counted along it
# Sequence of NRAS Q61R (P62937 whole entry): as the sequence (P62937 whole entry) above
# Sequence of KRAS G13D (P01116 1-169 isoform P01116-2 G13D limits assumed): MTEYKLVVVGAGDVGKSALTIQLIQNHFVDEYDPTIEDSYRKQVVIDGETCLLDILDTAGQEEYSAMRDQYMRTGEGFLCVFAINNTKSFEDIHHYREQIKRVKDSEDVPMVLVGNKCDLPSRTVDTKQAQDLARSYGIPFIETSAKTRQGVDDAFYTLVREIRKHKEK
# Sequence of KRAS G13D (P62937 whole entry): as the sequence (P62937 whole entry) above
# Sequence of KRAS G12C (P01116 1-169 isoform P01116-2 G12C): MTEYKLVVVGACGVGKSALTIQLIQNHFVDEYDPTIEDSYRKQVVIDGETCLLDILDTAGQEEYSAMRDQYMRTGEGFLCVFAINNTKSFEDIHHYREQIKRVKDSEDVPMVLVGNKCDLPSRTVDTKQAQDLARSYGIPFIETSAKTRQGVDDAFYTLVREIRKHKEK
# Sequence of KRAS G12C (P62937 whole entry): as the sequence (P62937 whole entry) above
# Sequence of NRAS WT (P01111 whole entry): as the sequence (P01111 whole entry Q61K) above, with K61Q counted along it
# Sequence of NRAS WT (P62937 whole entry): as the sequence (P62937 whole entry) above
# Sequence of KRAS G12D (P01116 1-169 isoform P01116-2 G12D limits assumed): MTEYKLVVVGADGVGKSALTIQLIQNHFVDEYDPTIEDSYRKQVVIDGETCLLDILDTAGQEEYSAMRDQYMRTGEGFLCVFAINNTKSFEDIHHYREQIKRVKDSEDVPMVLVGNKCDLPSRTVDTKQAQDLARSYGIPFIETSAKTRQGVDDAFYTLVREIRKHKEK
# Sequence of KRAS G12D (P62937 whole entry): as the sequence (P62937 whole entry) above
# Sequence of NRAS G12C (P01111 whole entry G12C): as the sequence (P01111 whole entry Q61K) above, with G12C, K61Q counted along it
# Sequence of NRAS G12C (P62937 whole entry): as the sequence (P62937 whole entry) above
# Sequence of KRAS G13C (P01116 1-169 isoform P01116-2 G13C): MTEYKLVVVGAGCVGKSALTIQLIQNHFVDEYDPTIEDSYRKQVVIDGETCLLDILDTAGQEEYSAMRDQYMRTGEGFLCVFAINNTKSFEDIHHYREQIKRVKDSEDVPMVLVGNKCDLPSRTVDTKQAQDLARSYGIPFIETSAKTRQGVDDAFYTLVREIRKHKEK
# Sequence of KRAS G13C (P62937 whole entry): as the sequence (P62937 whole entry) above
SMILES,IC50 (NRAS WT) [nM],IC50 (NRAS Q61K) [nM],IC50 (NRAS Q61R) [nM],IC50 (KRAS Q61H) [nM],IC50 (KRAS G12S; [3]) [nM],IC50 (KRAS G13C; [4]) [nM],IC50 (KRAS WT) [nM],IC50 (KRAS G12V; [5]) [nM],IC50 (KRAS G12C; [6]),IC50 (KRAS G12D; [7]) [nM],other results
"CCn1c(-c2cccnc2[C@H](C)OC)c2c3cc(ccc31)-c1csc(n1)C[C@H](NC(=O)[C@H](C(C)C)N(C)C(=O)N1[C@H](C)COC[C@H]1C)C(=O)N1CCC[C@H](N1)C(=O)OCC(C)(C)C2 (atropisomer, axis not shown) [Example A275]",10 to 100,< 10,10 to 100,< 10,–,–,–,–,–,–,–
"CCn1c(-c2cccnc2[C@H](C)OC)c2c3cc(ccc31)-c1csc(n1)C[C@H](NC(=O)[C@H](C(C)C)N(C)C(=O)N1CC([C@@H](C)OC)C1)C(=O)N1CCC[C@H](N1)C(=O)OCC(C)(C)C2 (atropisomer, axis not shown) [Example A278]",10 to 100,10 to 100,10 to 100,–,–,–,–,–,–,–,"IC50 (NCI-H358 (K-Ras G12C); NCI-H358, 120 h, 5-day treatment, read-out: H358 Cell Viability assay data (K-Ras G12C, IC50)): < 10 nM"
C=CC(=O)N1CC[C@H](C(=O)N(C)[C@H](C(=O)N[C@H]2C[C@H]3CN(CCO3)c3ccc4c(c3)c(c(-c3cccnc3[C@H](C)OC)n4CC)CC(C)(C)COC(=O)[C@@H]3CCCN(N3)C2=O)C(C)C)C1 (racemic) [Example A507],–,> 10000,> 10000,> 10000,–,–,–,–,–,–,"IC50 (NRAS G12C; NRAS G12C FRET data IC50, NRAS G12C): 100 to 1000 nM; IC50 (KRAS G12S; KRAS G12S FRET data, IC50): 1000 to 10000 nM; IC50 (KRAS G13C; KRAS G13C FRET data IC50, KRAS G13C): 1000 to 10000 nM; IC50 (KRAS G12V; KRAS G12V FRET data IC50, KRAS G12V): 1000 to 10000 nM; IC50 (KRAS G12C; KRAS G12C FRET data IC50, KRAS G12C): 100 to 1000 nM; IC50 (KRAS G12D; KRAS G12D FRET data, IC50): > 10000 nM; IC50 (KRAS G13D; KRAS G13D FRET data IC50, KRAS G13D): > 10000 nM; IC50 (NCI-H358 (K-Ras G12C); [1]): 100 to 1000 nM"
C=CC(=O)N1CC[C@H](C(=O)N(C)[C@H](C(=O)N[C@H]2Cc3cc(O)cc(c3)-c3ccc4c(c3)c(c(-c3cnccc3[C@H](C)OC)n4CC)CC(C)(C)COC(=O)[C@@H]3CCCN(N3)C2=O)C(C)C)C1 [Example A076],–,100 to 1000,100 to 1000,10 to 100,10 to 100,10 to 100,10 to 100,10 to 100,10 to 100 nM and < 10 nM,100 to 1000,IC50 (NRAS G12C; [2]): < 10 nM; IC50 (KRAS G13D; [8]): 10 to 100 nM
C=CC(=O)N1CC[C@H](C(=O)N(C)[C@H](C(=O)N[C@H]2Cc3cc(O)cc(c3)-c3ccc4c(c3)c(c(-c3nccnc3COC)n4CC)CC(C)(C)COC(=O)[C@@H]3CCCN(N3)C2=O)C(C)C)C1 [Example A085],–,> 10000,> 10000,1000 to 10000,> 10000,> 10000,> 10000,> 10000,1000 to 10000 nM,> 10000,–
C=CC(=O)N1CC[C@H](C(=O)N(C)[C@H](C(=O)N[C@H]2Cc3cc(O)cc(c3)-c3ccc4c(c3)c(c(-c3ccncc3)n4C(C)(C)C#N)CC(C)(C)COC(=O)[C@@H]3CCCN(N3)C2=O)C(C)C)C1 [Example A086],–,100 to 1000,1000 to 10000,100 to 1000,100 to 1000,100 to 1000,1000 to 10000,100 to 1000,10 to 100 nM,1000 to 10000,–
CCn1c(-c2cnccc2COC)c2c3cc(ccc31)-c1cc(O)cc(c1)C[C@H](NC(=O)[C@H](C(C)C)N(C)C(=O)[C@H]1CCN(C(=O)/C=C/CN(C)C)C1)C(=O)N1CCC[C@H](N1)C(=O)OCC(C)(C)C2 [Example A087],–,100 to 1000,100 to 1000,10 to 100,10 to 100,100 to 1000,100 to 1000,10 to 100,10 to 100 nM,100 to 1000,–
CCn1c(-c2cccnc2[C@H](C)OC)c2c3cc(ccc31)-c1cc(O)cc(c1)C[C@H](NC(=O)[C@@H]1[C@H](C)CCN1C(C)=O)C(=O)N1CCC[C@H](N1)C(=O)OCC(C)(C)C2 [Example A144],100 to 1000,100 to 1000,1000 to 10000,100 to 1000,–,–,–,–,–,–,–
CCn1c(-c2cccnc2[C@H](C)OC)c2c3cc(ccc31)-c1cc(O)cc(c1)C[C@H](NC(=O)[C@H](C(C)C)N(C)C(=O)[C@H]1[C@@H]3CNC[C@@H]31)C(=O)N1CCC[C@H](N1)C(=O)OCC(C)(C)C2 [Example A163],100 to 1000,1000 to 10000,1000 to 10000,100 to 1000,–,–,–,–,–,–,–
C=CS(=O)(=O)N1CC[C@H](C(=O)N(C)[C@H](C(=O)N[C@H]2Cc3cccc(c3)-c3ccc4c(c3)c(c(-c3cncnc3)n4CC)CC(C)(C)COC(=O)[C@@H]3CCCN(N3)C2=O)C(C)C)C1 [Example A171],–,> 10000,> 10000,> 10000,> 10000,1000 to 10000,> 10000,> 10000,1000 to 10000 nM,> 10000,IC50 (NRAS G12C; [2]): 1000 to 10000 nM; IC50 (KRAS G13D; [8]): > 10000 nM; IC50 (NCI-H358 (K-Ras G12C); [1]): 100 to 1000 nM
CCn1c(-c2cccnc2[C@H](C)OC)c2c3cc(ccc31)-c1cc(O)cc(c1)C[C@H](NC(=O)C(C)Cc1ccncc1)C(=O)N1CCC[C@H](N1)C(=O)OCC(C)(C)C2 (stereo partly shown) [Example A179],100 to 1000,1000 to 10000,1000 to 10000,100 to 1000,–,–,–,–,–,–,–
CCn1c(-c2cccnc2[C@H](C)OC)c2c3cc(ccc31)-c1cc(O)cc(c1)C[C@H](NC(=O)C13CCCC1C3(F)F)C(=O)N1CCC[C@H](N1)C(=O)OCC(C)(C)C2 (stereo partly shown) [Example A180],1000 to 10000,1000 to 10000,1000 to 10000,100 to 1000,–,–,–,–,–,–,–
C=CC(=O)N1CC2(CCN2C(=O)N(C)[C@H](C(=O)N[C@H]2Cc3nc(n(C)n3)-c3ccc4c(c3)c(c(-c3cccnc3[C@H](C)OC)n4CC)CC(C)(C)COC(=O)C3CCCN(N3)C2=O)C(C)C)C1 (stereo partly shown) [Example A612],–,10 to 100,10 to 100,10 to 100,100 to 1000,100 to 1000,100 to 1000,100 to 1000,10 to 100 nM,100 to 1000,IC50 (NRAS G12C; [2]): < 10 nM; IC50 (KRAS G13D; [8]): 100 to 1000 nM; IC50 (NCI-H358 (K-Ras G12C); [1]): 100 to 1000 nM
